Consider one substance from US20250333733A1, “NOVEL TARGETS AGAINST OVARIAN CANCER” (UNIVERSITY OF PUERTO RICO, priority 2022, published 2025).

The subject of one data set is SKOV3ip1 cells. Put plainly: Cell viability, Alamar blue, siRNA. It is filed as cell-based, human. The settings on record: SKOV3ip1, any siRNA concentration tested, vs NC-siRNA. How it is done:
OVCAR3CIS cells (3.0×10^4 cells/mL) or SKOV3ip1CIS (3.0×10^4 cells/mL) were seeded into 12-well plates. Twenty-four hours later, cells were transfected with 100 nM (final concentration) of each siRNA. The next day, 400 cells (OVCAR3CIS) or 1,000 cells (SKOV3ip1CIS) were seeded into 6-well plates and incubated for seven days, fixed and stained with 0.5% crystal violet in methanol. Colonies of at least 50 cells were counted using a light microscope (CKX41: Olympus, Center Valley, PA, USA) with a total magnification of 40x. For cell viability assays, OVCAR3 and OVCAR3CIS (3.0×10^4 cells/mL) or SKOV3ip1and SKOV3ip1CIS (3.5×10^4 cells/mL) were seeded into 96-well plates, and 24 hours later, siRNA transfection was performed as described above. The next day, the transfection mix was replaced with cisplatin (CIS) (2.5 uM final concentration dissolved in regular cell culture media) and after forty-eight hours, the medium was removed, and Alamar blue dye (Invitrogen, Thermo Fisher Scientific, Eugene, OR, USA) was added following the manufacturer's instructions. Optical density (OD) was measured, and percentages of cell viability were calculated after blank OD subtraction. Untreated cells were assessed as 100% cell viability.
For orientation: Alamar Blue is a resazurin reagent that responds to reducing activity.

Data set [1] concerns OVCAR3CIS cells. Put plainly: Matrigel transwell invasion assay. Type of data set: cell-based. The settings on record: vs NC-siRNA. How it is done: (§1) Cell invasion was measured using the Matrigel transwell method. OVCAR3CIS (3.0×10^4 cells/mL) or SKOVip1CIS (3.5×10^4 cells/mL) were seeded into 10 cm Petri dishes and transfected with siRNAs. Twenty-four hours later, serum-free matrigel (BD Biosciences CA, USA) was added onto the upper chambers of 24-well plates and incubated at 37° C. for polymerization. Transfected cells were collected and resuspended in serum-free and re-seeded onto the Matrigel-coated chambers. Medium containing 10% FBS was added to the lower area of the wells, and the plates incubated for 48 hours at 37° C. The medium was removed, and cells that invaded through the matrigel fixed and stained using ProtocolHema 3 Stain Set (Fisher Scientific MI, USA). Invaded cells were microscopically counted using a digital camera to capture images at a 20× resolution. The percentage of cell invasion was calculated using the NC-SIRNA condition as 100% cell invasion.

A further data set deals with SKOV3ip1CIS cells. Put plainly: Western blot of apoptotic-related and cell-cycle related proteins. It is filed as cell-based, human. How it is done: (§2) Cell pellets were lysed with complete lysis buffer and total protein concentration […]. Protein samples were separated by SDS-PAGE, blotted onto nitrocellulose membranes, blocked in either 5% non-fat dry milk (Bio-Rad) or 5% BSA (HyClone), and probed with the appropriate dilution of corresponding primary antibody. Membranes were rinsed and incubated with corresponding HRP-conjugated secondary antibody, followed by enhanced chemiluminescence and autoradiography.

The next data set concerns CASC10. In words: RT-qPCR of CASC10 expression after siRNA transfection in OVCAR3CIS cells. Type of data set: cell-based. The settings on record: vs NC-siRNA. How it is done: SiRNA ON-TARGET plus SMARTpool (a mixture of 4 siRNA as a single tube) and a negative control siRNA (NC-siRNA) (Sigma-Aldrich) were used for transfection studies. CASC10, was targeted by using two siRNAs targeting different regions of the CASC10 RNA (e.g., CASC10-siRNA (1) and CASC10-siRNA (2)). OVCAR3CIS or SKOV3ip1CIS cells were seeded into 12-well plates at 3.0×10^4 cells/mL. The next day, siRNAs were mixed with HiPerfect transfection reagent (Qiagen, Valencia, CA) at a 1:2 ratio (SIRNA: HiPerfect) in serum and antibiotic-free Opti-MEM medium (Gibco) and added to the cells. After twenty-four hours the media was replaced by regular culture media, and cells were cultured and used for further experiments. To assess siRNA transfection efficiency, cells were collected 24 hours after siRNA transfection.
A custom-made 384-well plate containing pre-designed forward and reverse primers was purchased from Bio-Rad (CA, USA). Total RNA was isolated from OVCAR3 and OVCAR3CIS cells using the GenElute Mammalian Total RNA Mini Kit (Millipore-Sigma, MO, USA) following the manufacturer's instructions. […] Fold-changes and cycle threshold (Ct) values were calculated by the instrument's internal software relative to OVCAR3 cells and normalized to B-actin along with controls for gDNA, PCR reaction, RT reaction, and RNA quality.
A general note: Quantitative PCR measures a nucleic acid by following its amplification.

The subject of data set [2] is SKOV3IP1CIS. In words: Matrigel transwell invasion assay. It is filed as cell-based, human. How it is done:
as §1

Data set [3] has as its system SKOV3IP1CIS. In words: Cell cycle progression by flow cytometry. It is filed as cell-based, human. The settings on record: 48 hours post-transfection. How it is done: (§3) To assess cell cycle progression, OVCAR3CIS (3.0×10^4 cells/mL) or SKOV3ip1CIS (3.5×10^4 cells/mL) were seeded into 10 cm Petri dishes and transfected with NC-siRNA or CASC10-siRNA (2). Forty-eight hours later, attached cells were collected, washed in ice-cold PBS, fixed with 70% cold ethanol, and stored at 4° C. Cells were then washed with ice-cold PBS, resuspended in propidium iodide (PI)/RNase Staining Buffer, incubated in the dark for 15 minutes at room temperature, and then analyzed by flow cytometry in BD C6 Accuri (CA, USA). Accuri's software was used to determine the percentage of cells in each cell cycle phase.
Background: A flow cytometer gives signals particle by particle.

The subject of data set [4] is OVCAR3CIS cells. In words: Western blot of apoptotic-related and cell-cycle related proteins. Type of data set: cell-based. The settings on record: vs NC-siRNA. How it is done: as §2
A further data set has as its system OVCAR3CIS. In words: Cell cycle progression by flow cytometry. It is filed as cell-based. The settings on record: 48 hours post-transfection. How it is done: as §3

Regarding “CASC10-siRNA (2): siRNA targeting CASC10 RNA, SEQ ID NO 3 and 4: 5′ GACUCUUGGAUCCAAGUUU(dT)(dT) 3′ / 5′ AAACUUGGAUCCAAGAGUC(dT)(dT) 3′ (chain 1 GACUCUUGGAUCCAAGUUUNN; chain 2 AAACUUGGAUCCAAGAGUCNN; 3' dTdT overhangs, chemistry not fully specified)”, the cell viability result in the data set on SKOV3ip1 cells is reported as “did not significantly reduce cell viability”. The substance further registered a reduction of invasiveness in the data set on OVCAR3CIS cells [1] of 62%. For the same substance, in the data set with SKOV3ip1CIS cells, the Bcl-2 decrease is listed as 66%, the “cleaved Caspase-3 increase” value stood at 6 fold, the “cleaved Caspase-9 increase” value came out at 2 fold and the “cleaved PARP-1 increase” value was determined as 7 fold. In the data set on SKOV3ip1CIS cells (vs NC-siRNA), the CDK4 protein entry was “reduction”, the “Cyclin E1 protein” value is given as “reduction” and the p27 protein levels result is on record as “reduction”. In addition, the “decrease of CASC10 expression” value in the data set with CASC10 turned out to be 57%. The “reduction of invasion ability” value in the data set on SKOV3IP1CIS [2] is reported as 58%. In the data set on SKOV3IP1CIS [3], the cell cycle progression result is “cell cycle arrest in the G0/G1 to S phase”. In the data set with OVCAR3CIS cells [4], the Bcl-2 protein result is given as “strong reduction”, the CDK4 protein result is listed as “reduction”, the “Cyclin E1 protein” value was “reduction” and the “cleaved Caspase-3 protein” value is recorded as “significant increase”. Moreover, in the data set with OVCAR3CIS cells [4], the “cleaved Caspase-9 protein” value is “significant increase”, the “cleaved PARP-1 protein” value was “significant increase” and the p27 protein levels result was “reduction”. Also, in the data set on OVCAR3CIS, the cell cycle progression result is listed as “cell cycle arrest in the G0/G1 to S phase”.
